# Measurements from patent publication US9295673B2, “Combination of mTOR inhibitors and P13-kinase inhibitors, and uses thereof” (Intellikine LLC, priority 2011, dated 2016).
# Read-outs that look alike come from different tables or passages of the source.
# Experiments:
# PI3K δ = PI3K δ (Homo sapiens, UniProt O00329); assay: PI 3-Kinase (human) HTRF assay, PI3K δ; conditions: read-out: PI3K δ IC50
# PI3K β = PI3K β (Homo sapiens, UniProt P42338); assay: PI 3-Kinase (human) HTRF assay, PI3K β; conditions: read-out: PI3K β IC50; Table 4
# Sequence of PI3K β (P42338 whole entry): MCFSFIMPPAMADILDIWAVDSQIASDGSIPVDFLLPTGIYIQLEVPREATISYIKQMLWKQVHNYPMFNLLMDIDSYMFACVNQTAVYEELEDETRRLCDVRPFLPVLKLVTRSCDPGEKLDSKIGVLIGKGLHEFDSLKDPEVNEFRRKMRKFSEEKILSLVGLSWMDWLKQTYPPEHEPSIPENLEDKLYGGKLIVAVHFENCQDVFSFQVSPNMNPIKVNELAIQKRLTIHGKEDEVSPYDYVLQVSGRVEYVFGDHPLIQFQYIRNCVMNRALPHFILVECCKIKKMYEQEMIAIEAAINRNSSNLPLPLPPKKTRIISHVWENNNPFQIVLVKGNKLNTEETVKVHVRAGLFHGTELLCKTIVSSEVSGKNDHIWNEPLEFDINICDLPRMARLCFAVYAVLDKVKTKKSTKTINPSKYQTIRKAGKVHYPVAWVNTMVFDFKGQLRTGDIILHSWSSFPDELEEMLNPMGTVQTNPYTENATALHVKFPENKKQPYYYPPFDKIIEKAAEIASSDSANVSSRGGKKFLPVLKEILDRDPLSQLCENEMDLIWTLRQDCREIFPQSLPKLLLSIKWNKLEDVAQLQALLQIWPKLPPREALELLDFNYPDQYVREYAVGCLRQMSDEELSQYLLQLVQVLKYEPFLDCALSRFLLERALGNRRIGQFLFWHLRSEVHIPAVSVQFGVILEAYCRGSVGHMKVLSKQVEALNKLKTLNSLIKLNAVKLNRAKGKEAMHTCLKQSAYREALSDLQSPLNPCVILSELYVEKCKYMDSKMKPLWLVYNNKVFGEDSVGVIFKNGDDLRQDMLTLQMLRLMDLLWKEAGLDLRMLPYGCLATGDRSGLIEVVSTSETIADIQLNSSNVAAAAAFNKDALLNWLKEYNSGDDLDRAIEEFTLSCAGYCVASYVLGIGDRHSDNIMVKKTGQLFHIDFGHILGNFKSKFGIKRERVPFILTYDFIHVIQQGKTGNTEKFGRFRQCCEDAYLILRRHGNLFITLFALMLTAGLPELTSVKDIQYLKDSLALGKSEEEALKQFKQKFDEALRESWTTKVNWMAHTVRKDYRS
# Sequence of PI3K β (P27986 whole entry partner): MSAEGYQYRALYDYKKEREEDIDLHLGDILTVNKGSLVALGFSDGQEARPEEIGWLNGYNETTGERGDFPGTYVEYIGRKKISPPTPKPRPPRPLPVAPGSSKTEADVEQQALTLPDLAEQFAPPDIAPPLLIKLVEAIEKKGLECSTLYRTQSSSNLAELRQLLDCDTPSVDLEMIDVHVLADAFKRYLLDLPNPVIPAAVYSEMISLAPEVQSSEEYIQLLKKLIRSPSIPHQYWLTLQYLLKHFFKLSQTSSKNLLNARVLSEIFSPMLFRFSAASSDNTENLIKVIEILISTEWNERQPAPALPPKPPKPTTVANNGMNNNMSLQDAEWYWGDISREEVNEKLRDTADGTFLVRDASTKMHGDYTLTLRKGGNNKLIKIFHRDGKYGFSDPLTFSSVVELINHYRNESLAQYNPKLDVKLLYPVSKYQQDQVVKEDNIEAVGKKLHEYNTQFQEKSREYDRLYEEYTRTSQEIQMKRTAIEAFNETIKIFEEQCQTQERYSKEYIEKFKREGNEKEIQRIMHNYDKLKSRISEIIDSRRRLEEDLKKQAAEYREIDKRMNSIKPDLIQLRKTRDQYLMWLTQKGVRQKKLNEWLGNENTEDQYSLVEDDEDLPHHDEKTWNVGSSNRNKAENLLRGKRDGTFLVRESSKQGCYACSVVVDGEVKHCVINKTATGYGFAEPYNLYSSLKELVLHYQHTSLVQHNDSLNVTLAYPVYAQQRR
# PI3K γ = PI3K γ (Homo sapiens, UniProt P48736); assay: PI 3-Kinase (human) HTRF assay, PI3K γ; conditions: read-out: PI3K γ IC50; Table 4
# Sequence of PI3K γ (P48736 whole entry): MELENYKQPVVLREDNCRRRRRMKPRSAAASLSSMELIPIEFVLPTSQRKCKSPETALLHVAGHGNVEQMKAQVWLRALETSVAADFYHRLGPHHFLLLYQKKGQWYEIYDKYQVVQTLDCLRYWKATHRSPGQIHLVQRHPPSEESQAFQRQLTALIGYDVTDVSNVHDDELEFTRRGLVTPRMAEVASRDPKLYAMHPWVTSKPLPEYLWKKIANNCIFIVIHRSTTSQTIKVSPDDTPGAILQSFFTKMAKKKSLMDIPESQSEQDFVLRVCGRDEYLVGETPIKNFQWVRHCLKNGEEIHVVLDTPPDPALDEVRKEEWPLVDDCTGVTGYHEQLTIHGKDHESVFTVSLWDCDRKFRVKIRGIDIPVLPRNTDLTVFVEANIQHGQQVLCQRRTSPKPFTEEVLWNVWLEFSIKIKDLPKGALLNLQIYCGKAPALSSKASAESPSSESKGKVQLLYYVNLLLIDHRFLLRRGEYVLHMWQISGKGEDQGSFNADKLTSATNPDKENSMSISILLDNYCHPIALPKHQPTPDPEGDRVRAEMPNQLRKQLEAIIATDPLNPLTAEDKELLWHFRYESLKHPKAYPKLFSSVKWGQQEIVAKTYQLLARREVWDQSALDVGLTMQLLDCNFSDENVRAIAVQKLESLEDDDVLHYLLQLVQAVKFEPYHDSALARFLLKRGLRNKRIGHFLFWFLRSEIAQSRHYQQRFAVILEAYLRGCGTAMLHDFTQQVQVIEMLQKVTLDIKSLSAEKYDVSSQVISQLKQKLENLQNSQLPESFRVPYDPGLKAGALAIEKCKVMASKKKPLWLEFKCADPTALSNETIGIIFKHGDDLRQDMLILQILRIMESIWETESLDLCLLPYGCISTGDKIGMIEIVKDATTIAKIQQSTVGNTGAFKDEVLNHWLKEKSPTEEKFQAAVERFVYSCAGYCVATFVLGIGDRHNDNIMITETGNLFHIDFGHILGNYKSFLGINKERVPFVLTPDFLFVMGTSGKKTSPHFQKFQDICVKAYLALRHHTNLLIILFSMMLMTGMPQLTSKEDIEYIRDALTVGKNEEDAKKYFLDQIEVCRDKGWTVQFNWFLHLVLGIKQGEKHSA
# Sequence of PI3K δ (O00329 whole entry): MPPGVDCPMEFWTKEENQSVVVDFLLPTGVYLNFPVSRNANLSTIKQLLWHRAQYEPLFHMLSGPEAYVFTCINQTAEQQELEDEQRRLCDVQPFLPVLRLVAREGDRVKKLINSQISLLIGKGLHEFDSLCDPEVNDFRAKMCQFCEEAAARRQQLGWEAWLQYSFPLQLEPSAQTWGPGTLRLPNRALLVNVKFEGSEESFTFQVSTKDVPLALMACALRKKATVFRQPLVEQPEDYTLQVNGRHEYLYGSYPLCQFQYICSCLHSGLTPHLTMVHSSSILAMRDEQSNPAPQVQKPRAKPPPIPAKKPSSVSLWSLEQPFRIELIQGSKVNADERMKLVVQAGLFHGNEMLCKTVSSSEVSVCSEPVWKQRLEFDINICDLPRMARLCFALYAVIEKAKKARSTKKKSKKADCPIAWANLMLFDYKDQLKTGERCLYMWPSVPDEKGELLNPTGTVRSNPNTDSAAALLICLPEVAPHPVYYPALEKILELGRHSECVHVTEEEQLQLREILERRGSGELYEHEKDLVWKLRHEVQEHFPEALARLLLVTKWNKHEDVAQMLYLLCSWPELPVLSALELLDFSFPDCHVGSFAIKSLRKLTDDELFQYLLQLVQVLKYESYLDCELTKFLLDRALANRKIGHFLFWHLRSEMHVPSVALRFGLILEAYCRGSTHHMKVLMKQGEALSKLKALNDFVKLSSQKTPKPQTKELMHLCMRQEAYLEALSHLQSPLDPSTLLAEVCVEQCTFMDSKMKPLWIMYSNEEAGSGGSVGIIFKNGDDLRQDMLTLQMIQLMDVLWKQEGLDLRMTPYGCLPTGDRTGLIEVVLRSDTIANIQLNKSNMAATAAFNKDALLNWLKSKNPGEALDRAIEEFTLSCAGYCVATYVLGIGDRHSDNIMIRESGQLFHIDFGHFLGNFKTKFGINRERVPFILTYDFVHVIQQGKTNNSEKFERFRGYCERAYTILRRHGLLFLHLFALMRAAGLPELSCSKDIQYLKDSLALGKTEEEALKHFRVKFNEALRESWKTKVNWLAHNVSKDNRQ
# Sequence of PI3K δ (P27986 whole entry partner): as the sequence (P27986 whole entry partner) above
SMILES,IC50 (PI3K δ),IC50 (PI3K β),IC50 (PI3K δ; Table 4),IC50 (PI3K γ)
C[C@@H](N)C(=O)N1CCN(c2cnc3ccc(-c4ccc5oc(N)nc5c4)nc3n2)CC1 [Compound 582],< 10 µM,< 10 µM,,
CC(C)N1CCN(c2cnc3ccc(-c4ccc5oc(N)nc5c4)nc3n2)CC1 [Compound 583],,,< 10 µM,
NCC(=O)N1CCN(c2cnc3ccc(-c4ccc5oc(N)nc5c4)nc3n2)CC1 [Compound 584],,< 10 µM,< 10 µM,
Nc1nc2cc(-c3ccc4ncc(N5CC(N6CCN(CC7CC7)CC6)C5)nc4n3)ccc2o1 [Compound 586],,< 10 µM,< 10 µM,< 10 µM
CCOC(=O)N1CCN(c2cnc3ccc(-c4ccc5oc(N)nc5c4)nc3c2)CC1 [Compound 587],,< 10 µM,,
CC(C)(N)C(=O)N1CCN(c2cnc3ccc(-c4ccc5oc(N)nc5c4)nc3n2)CC1 [Compound 591],< 10 µM,< 10 µM,,< 10 µM
Nc1nc2cc(-c3ccc4ncc(N5CCC(O)CC5)nc4n3)ccc2o1 [Compound 596],,< 10 µM,,
Nc1nc2cc(-c3ccc4ncc(N5CC(N6CCN(CCO)CC6)C5)nc4n3)ccc2o1 [Compound 597],,< 10 µM,< 10 µM,< 10 µM
C[C@H]1CN(c2cnc3ccc(-c4ccc5oc(N)nc5c4)nc3c2)CCN1 [Compound 598],< 10 µM,,,
Cc1nccn1C1CN(c2cnc3ccc(-c4ccc5oc(N)nc5c4)nc3n2)C1 [Compound 601],,< 10 µM,< 10 µM,< 10 µM
CC1(C)CN(C2CN(c3cnc4ccc(-c5ccc6oc(N)nc6c5)nc4n3)C2)CCN1 [Compound 603],,< 10 µM,,
Nc1nc2cc(-c3ccc4ncc(N5CC(N6CCOCC6)C5)cc4n3)ccc2o1 [Compound 604],< 10 µM,< 10 µM,,
C[C@H]1CN(C2CN(c3cnc4ccc(-c5ccc6oc(N)nc6c5)nc4c3)C2)CCN1 [Compound 605],,< 10 µM,,< 10 µM
CC1(C)CN(C2CN(c3cnc4ccc(-c5ccc6oc(N)nc6c5)nc4c3)C2)CCN1 [Compound 609],,< 10 µM,,
Nc1nc2cc(-c3ccc4ncc(N5CC(N6CCN(CC7CC7)CC6)C5)cc4n3)ccc2o1 [Compound 611],,< 10 µM,,< 10 µM
C[C@H]1COCCN1C1CN(c2cnc3ccc(-c4ccc5oc(N)nc5c4)nc3n2)C1 [Compound 612],,,< 10 µM,< 10 µM
Nc1nc2cc(-c3ccc4ncc(N5CCC(O)CC5)cc4n3)ccc2o1 [Compound 613],,< 10 µM,< 10 µM,
Cc1nccn1C1CN(c2cnc3ccc(-c4ccc5oc(N)nc5c4)nc3c2)C1 [Compound 614],,< 10 µM,,
CN1CCN(C2CN(c3cnc4ccc(-c5ccc6oc(N)nc6c5)nc4c3)C2)CC1=O [Compound 615],,< 10 µM,,
Nc1nc2cc(-c3ccc4ncc(N5CC(N6CCN(CCO)CC6)C5)cc4n3)ccc2o1 [Compound 616],,< 10 µM,,
C[C@@H]1COCCN1C1CN(c2cnc3ccc(-c4ccc5oc(N)nc5c4)nc3c2)C1 [Compound 617],,< 10 µM,,
C[C@H]1COCCN1C1CN(c2cnc3ccc(-c4ccc5oc(N)nc5c4)nc3c2)C1 [Compound 619],,,,< 10 µM
Nc1nc2cc(-c3ccc4ncc(N5CC(N6CCN(C7CC7)CC6)C5)nc4n3)ccc2o1 [Compound 620],< 10 µM,< 10 µM,,< 10 µM
Nc1nc2cc(-c3ccc4ncc(N5CC(N6CCN(C7CC7)CC6)C5)cc4n3)ccc2o1 [Compound 621],,< 10 µM,< 10 µM,
CN1CCN(C2CN(c3cnc4ccc(-c5ccc6oc(N)nc6c5)nc4n3)C2)CC1 [Compound 622],,< 10 µM,,
CCN1CCN(C2CN(c3cnc4ccc(-c5ccc6oc(N)nc6c5)nc4c3)C2)CC1 [Compound 626],,,,< 10 µM
CCN1CCN(C2CN(c3cnc4ccc(-c5ccc6oc(N)nc6c5)nc4n3)C2)CC1 [Compound 627],,< 10 µM,< 10 µM,< 10 µM
